Experimental data: article PMC6372542 (Frontiers in Pediatrics, 2019)
Where “and” joins values, the source holds several entries; their conditions need not be identical. Identical values can stand only once. Like-named read-outs stand apart in the source and are kept apart here.

What was measured:
[1] = cited from earlier work; for half-life: adolescents, ref [17]
[2] = Non-compartmental plasma pharmacokinetics of sertraline and N-desmethylsertraline in HIV-infected and uninfected youth (IMPAACT P1080); details: for C0: pre-dose plasma; for CL/F: po, non-compartmental apparent oral clearance; for concentration: read-out: Norm-C0
Excerpt: International Maternal Pediatric Adolescent AIDS Clinical Trials Network (IMPAACT) P1080 was a multicenter, pilot study of psychiatric and antiretroviral medication concentrations in HIV-1-infected and uninfected youth.
(§1) Study procedures were standardized across multiple study arms. The single pharmacokinetic visit included a medication history, adherence survey, and a CYP2D6 phenotype assessment (the other psychotropic study medications were primarily metabolized by CYP 2D6). Participants with HIV had to be taking their antiretroviral medications consistently for at least 4 weeks prior to sampling. […] Plasma samples were drawn at pre-dose and 2, 4, 6, 12, and 24-h post-dose.
Analytes and internal standard were extracted with 600 μL of acetonitrile from 200 μL of plasma, then eluted from a Gemini C18 column in under 4 min using acetonitrile/water/formic acid (85:15:0.1, v/v/v) as the mobile phase.
The area under the concentration vs. time curve from time 0–24 h post dose (AUC0−24) was estimated using the trapezoidal rule. Apparent oral clearance (CL/F), where F is bioavailability, was calculated as dose divided by AUC0−24. The apparent volume of distribution (V/F) was determined as CL/F divided by k, where k is the terminal slope of the log plasma concentration-time curve. The half-life (t1/2) was calculated as 0.693/k. All concentration data were normalized to dose (100 mg) and to weight (70 kg). Non-compartmental parameters were estimated with Phoenix® WinNonlin® (Certara L.P. (Pharsight), St. Louis, MO). Pharmacokinetic parameters were compared between HIV(–) and PI/r cohorts with Wilcoxon rank-sum tests, two-sided with significance set to 0.05. Statistical comparisons were not made with the EFV group due to the low enrollment/accrual in this cohort (n = 3).

[3] = Sertraline population pharmacokinetics (NONMEM, one-compartment model at steady-state); assay type: in vivo, human; details: for V/F / ka: typical population value, Estimate (% SE)
Procedure: A one-compartment model at steady-state with first-order absorption and elimination best described the data (ADVAN2 TRANS2, FOCE with interaction). A combined (additive and proportional) residual error model was used. Covariates were screened individually on each pharmacokinetic parameter (CL/F, V/F, and ka). For all models, goodness of fit were assessed with diagnostic plots. All covariates that improved model fit at p < 0.05 were included in the multivariate screen.

[4] = Plasma concentrations of protease inhibitors, ritonavir and efavirenz (antiretroviral exposures); details: for AUC / Cmax: human, in vivo; for Clast: plasma, median (interquartile range), range for lopinavir, median (range) for efavirenz
Excerpt: as §1
Plasma concentrations of primary protease inhibitors, ritonavir and efavirenz were measured at the University of California San Diego Pediatric Pharmacology Laboratory by validated reverse phase high performance liquid chromatography or mass spectrometry methods.

[5] = EFV cohort n = 3, median (minimum, maximum)
[6] = PI/r cohort n = 12, median (interquartile range)

SMILES: CN[C@H]1CC[C@@H](c2ccc(Cl)c(Cl)c2)c2ccccc21 [Sertraline]
- half-life ([1]; single dose): 26.7 h
- half-life ([1]; steady-state): 15.3 h
- elimination half-life ([1]; adults, children, and adolescents, ref [5]): about 27 h
- decrease of sertraline exposure (AUC0−24) by efavirenz ([1]; adults, concomitant efavirenz, ref [13]): ~ 40%
- AUC0−24 ([1]; after multiple dosing in prior adult studies, normalized to a 100 mg dose, ref [20]): 1038 to 1532 ng·h/mL
- half-life at steady-state ([1]; lower end of dose range of 50–200 mg, ref [15], [17]): 15.3 h
- sertraline exposure (AUC0−24 and Cmax) lower in children and adolescents ([1]; plasma concentration adjusted for weight, compared to adults, ref [5], [9]): ~ 22%
- clearance ([1]; population pharmacokinetic study of geriatric patients (median age = 76 years) with Alzheimer's Disease, ref [23]): 83.1 L/h
- AUC0−24 ([1]; previous pediatric studies, normalized to 100 mg dose and 70 kg weight, ref [15], [17]): 883 to 2,535 ng·h/mL
- median sertraline trough ([1]; therapeutic drug monitoring program, 100 mg daily doses, IQR 12–30 ng/mL, ref [21]): 20 ng/mL
- half-life at steady-state ([1]; upper end of dose range of 50–200 mg, ref [15], [17]): 27.2 h
- sertraline exposures lower in EFV participants than HIV(–) and PI/r groups ([2]; EFV cohort n = 3): ~ 50%
- C24 ([2]; EFV cohort n = 3, 24 h post-dose, median (minimum, maximum)): 4.2 (2.9, 5.9) ng/mL
- Tmax [2, 5]: 6 (4, 6) hr
- C0 [2, 5]: 6 ng/mL and 6.0 (3.0, 7.0) ng/mL
- normalized trough concentrations, C0 and C24 ([2]; HIV(-) and PI/r groups): 18 to 33 ng/mL
- sertraline exposure lower in the PI/r cohort than in HIV(–) ([2]; PI/r cohort compared to HIV(–)): ~ 40% and 30–40%
- Tmax [2, 6]: 4 (4, 6) hr
- C0 [2, 6]: 10.0 (7.5, 15.9) ng/mL
- Tmax ([2]; human, in vivo): 4 h
- Cmax ([2]; human, in vivo, 0.7 mg/kg, Cmax, EFV cohort n = 3, median (minimum, maximum)): 13.2 ng/mL
- Cmax ([2]; human, in vivo, 0.9 mg/kg, Cmax, PI/r cohort n = 12, median (interquartile range)): 34.3 ng/mL
- Cmax ([2]; human, in vivo, 1.3 mg/kg, Cmax, HIV(-) cohort n = 16, median (interquartile range)): 46.7 ng/mL
- AUC(0-t) ([2]; human, in vivo, 100 mg, Norm-AUC0−24, EFV cohort n = 3, normalized to a 100 mg once daily dose and a weight of 70 kg, median (minimum, maximum)): 473 ng·h/mL
- AUC(0-t) ([2]; human, in vivo, 100 mg, Norm-AUC0−24, HIV(-) cohort n = 16, normalized to a 100 mg once daily dose and a weight of 70 kg, median (interquartile range)): 1180 ng·h/mL
- AUC(0-t) ([2]; human, in vivo, 100 mg, Norm-AUC0−24, PI/r cohort n = 12, normalized to a 100 mg once daily dose and a weight of 70 kg, median (interquartile range)): 791 ng·h/mL
- concentration at 24 h ([2]; human, in vivo, 100 mg, Norm-C24, EFV cohort n = 3, normalized to 100 mg once daily and 70 kg, median (minimum, maximum)): 12.8 ng/mL
- concentration at 24 h ([2]; human, in vivo, 100 mg, Norm-C24, HIV(-) cohort n = 16, normalized to 100 mg once daily and 70 kg, median (interquartile range)): 32.7 ng/mL
- concentration at 24 h ([2]; human, in vivo, 100 mg, Norm-C24, PI/r cohort n = 12, normalized to 100 mg once daily and 70 kg, median (interquartile range)): 20.1 ng/mL
- Cmax ([2]; human, in vivo, 100 mg, Norm-Cmax, EFV cohort n = 3, normalized to 100 mg once daily and 70 kg, median (minimum, maximum)): 28.8 ng/mL
- Cmax ([2]; human, in vivo, 100 mg, Norm-Cmax, HIV(-) cohort n = 16, normalized to 100 mg once daily and 70 kg, median (interquartile range)): 78.3 ng/mL
- Cmax ([2]; human, in vivo, 100 mg, Norm-Cmax, PI/r cohort n = 12, normalized to 100 mg once daily and 70 kg, median (interquartile range)): 46.9 ng/mL
- AUC(0-t) ([2]; human, in vivo, AUC0−24, EFV cohort n = 3, plasma, steady state, median (minimum, maximum)): 145 ng·h/mL
- AUC(0-t) ([2]; human, in vivo, AUC0−24, HIV(-) cohort n = 16, plasma, steady state, median (interquartile range)): 652 ng·h/mL
- AUC(0-t) ([2]; human, in vivo, AUC0−24, PI/r cohort n = 12, plasma, steady state, median (interquartile range)): 486 ng·h/mL
- concentration at 24 h ([2]; human, in vivo, C24, EFV cohort n = 3, 24 h post-dose, median (minimum, maximum)): 4.2 ng/mL
- concentration at 24 h ([2]; human, in vivo, C24, HIV(-) cohort n = 16, 24 h post-dose, median (interquartile range)): 17.5 ng/mL
- concentration at 24 h ([2]; human, in vivo, C24, PI/r cohort n = 12, 24 h post-dose, median (interquartile range)): 12.6 ng/mL
- half-life ([2]; human, in vivo, T1/2, EFV cohort n = 3, median (minimum, maximum)): 11.1 h
- half-life ([2]; human, in vivo, T1/2, HIV(-) cohort n = 16, median (interquartile range)): 26.4 h
- half-life ([2]; human, in vivo, T1/2, PI/r cohort n = 12, median (interquartile range)): 18.1 h
- CL/F ([2]; human, in vivo, EFV cohort n = 3, median (minimum, maximum)): 75 mL/min/kg
- CL/F ([2]; human, in vivo, HIV(-) cohort n = 16, median (interquartile range)): 23.3 mL/min/kg
- CL/F ([2]; human, in vivo, PI/r cohort n = 12, median (interquartile range)): 26.7 mL/min/kg
- concentration ([2]; EFV cohort n = 3, normalized to 100 mg once daily and 70 kg, median (minimum, maximum)): 13.1 ng/mL
- concentration ([2]; HIV(-) cohort n = 16, normalized to 100 mg once daily and 70 kg, median (interquartile range)): 33.3 ng/mL
- concentration ([2]; PI/r cohort n = 12, normalized to 100 mg once daily and 70 kg, median (interquartile range)): 17.8 ng/mL
- clearance higher than in geriatric population pharmacokinetic study ([3]; 115 L/h vs 83.1 L/h in geriatric patients with Alzheimer's Disease): 38%
- V/F ([3]; base model): 53.8 L/kg
- ka ([3]; base model): 0.45 1/h and 0.45 (16.2) 1/h
- V/F ([3]; final model): 44.6 L/kg
- ka ([3]; final model): 0.42 1/h and 0.42 (14.7) 1/h
- clearance ([3]; human, plasma, oral, population model, for a typical 70 kg patient, read-out: estimated clearance (converted)): 1920 mL/min

SMILES: N[C@H]1CC[C@@H](c2ccc(Cl)c(Cl)c2)c2ccccc21 [N-desmethylsertraline]
- elimination half-life ([1]; metabolite, ref [5]): 62 to 104 h

SMILES: O=C1Nc2ccc(Cl)cc2[C@@](C#CC2CC2)(C(F)(F)F)O1 [Efavirenz]
- AUC [4]: 24500 ng·h/mL
- Cmax [4]: 1300 ng/mL
- Clast [4]: 1.3 (1.3, 3.4) μg/mL

SMILES: COC(=O)N[C@H](C(=O)N[C@@H](Cc1ccccc1)[C@@H](O)CN(Cc1ccc(-c2ccccn2)cc1)NC(=O)[C@@H](NC(=O)OC)C(C)(C)C)C(C)(C)C [Atazanavir]
- AUC [4]: 27200 ng·h/mL
- Cmax [4]: 3800 ng/mL
- Clast [4]: 1.2 (0.9, 2.6) μg/mL

SMILES: CC(C)c1nc(CN(C)C(=O)N[C@H](C(=O)N[C@@H](Cc2ccccc2)C[C@H](O)[C@H](Cc2ccccc2)NC(=O)OCc2cncs2)C(C)C)cs1 [Ritonavir]
- AUC [4]: 4900 ng·h/mL
- Cmax [4]: 600 ng/mL
- Clast [4]: 0.2 (0.1, 0.4) μg/mL
